Source: patent US20250179043A1, “PROCESSES FOR THE PREPARATION OF N-(1-METHYLCYCLOPROPYL)-2-(3-PYRIDINYL)-2H-INDAZOLE-4-CARBOXAMIDE AND INTERMEDIATES THEREOF” (FMC CORPORATION, priority 2022, published 2025)
Blank lines part the entries; values can stand above or below the compound they belong to.

Tests used:
[1] = Stable polymorph form screen (slurry experiments, final form by XRPD); format: physicochemical; conditions: for Final form (XRPD Result): start Form A + minor Form B
Procedure: Slurry experiments were conducted to identify the stable form at various conditions. In these experiments, saturated solutions in various solvents containing excess undissolved solids (starting with Form A+minor Form B) were stirred for extended durations. Slurries at room temperature (RT) and 2-8° C. were typically conducted for approximately 2 weeks, while slurries at 72-73° C. were stirred for a shorter duration (1 day) to minimize the potential for decomposition. […] The results are shown in the table 12 where the time and temperatures are approximate.

[2] = Form A and Form B interconversion (competitive) slurries, final form by XRPD; format: physicochemical
Procedure: Relative thermodynamic stabilities of anhydrous/non-solvated Forms A and B were studied at 2-8° C., room temperature (RT) and at 71-72° C. via interconversion (competitive) slurries. In these slurries, a given solvent system was pre-saturated with compound 092 (Form A+minor Form B) at the stated temperature, and a portion of the liquid phase was filtered into a mixture of solids containing relatively equal amounts of Form A and Form B. Interconversion slurries at 2-8° C. and RT were allowed to stir for 22 days, while slurries at 71-72° C. stirred for shorter duration (2-4 days). […] The results are reported in table 13 below where: liquid phase for each slurry was pre-saturated using as-received Form A+minor Form B; solvent ratios are v/v; water activity values were calculated using UNIFAC calculator at RT; and times and temperatures are approximate.

Final form (XRPD Result) ([1]; slurry in DCM, RT, 13 d): Form A | Final form (XRPD Result) ([1]; slurry in DMF, RT, 13 d): Form A | Final form (XRPD Result) ([1]; slurry in EtOH, 72-73° C., 1 d): Form A | Final form (XRPD Result) ([1]; slurry in EtOH, RT, 13 d): Form A | Final form (XRPD Result) ([1]; slurry in IPA, RT, 13 d): Form A | Final form (XRPD Result) ([1]; slurry in MEK, 72-73° C., 1 d): Form A | Final form (XRPD Result) ([1]; slurry in MEK, RT, 13 d): Form A | Final form (XRPD Result) ([1]; slurry in MeOH, 2-8° C., 14 d): Form A | Final form (XRPD Result) ([1]; slurry in MeOH, RT, 13 d): Form A | Final form (XRPD Result) ([1]; slurry in acetone, RT, 13 d): Form A
SMILES: CC1(NC(=O)c2cccc3nn(-c4cccnc4)cc23)CC1 [Compound 092, N-(1-methylcyclopropyl)-2-(3-pyridinyl)-2H-indazole 4-carboxamide]

Final form (XRPD Result) ([2]; competitive slurry in EtOH, 71-72° C., 2 d): Form A | Final form (XRPD Result) ([2]; competitive slurry in EtOH, RT, 22 d): Form A | Final form (XRPD Result) ([2]; competitive slurry in NMP/water 80:20 (aw 0.39), 2-8° C., 22 d): Form A | Final form (XRPD Result) ([2]; competitive slurry in NMP/water 80:20 (aw 0.39), 71-72° C., 2 d): Form A | Final form (XRPD Result) ([2]; competitive slurry in NMP/water 80:20 (aw 0.39), RT, 22 d): Form A
SMILES: CC1(NC(=O)c2cccc3nn(-c4cccnc4)cc23)CC1 [Form A + Form B, N-(1-methylcyclopropyl)-2-(3-pyridinyl)-2H-indazole 4-carboxamide]

Relative thermodynamic stability of Forms A and B ([2]; between 2° C. and 72° C., from competitive slurries): thermodynamically stable form | Relative stability of polymorph forms ([1]; between 2° C. and 73° C., from slurries): more stable than Form B
SMILES: CC1(NC(=O)c2cccc3nn(-c4cccnc4)cc23)CC1 [Form A, N-(1-methylcyclopropyl)-2-(3-pyridinyl)-2H-indazole 4-carboxamide]
